Measured values taken from patent publication US10287259B2, “Selenazolidine and thiazolidine compounds for treating cancer and other diseases” (The Penn State Research Foundation, priority 2016, dated 2019).

Assays:
[1] = system: Panc-1 cells; test: Colony formation assay; assay type: cell-based; conditions: 48 h treatment, colonies for 17 days
Description: Crystal violet staining method was utilized for performing colony formation assay (Franken et al., 2006, Nat. protoc. 1:2315-2319). In brief, Panc-1 cells were treated with vehicle control (DMSO). 2.5 μM or 10 μM of AS-10 for 48 h. After 48 h treatment period, cells were trypsinized and live cells were counted using tryphan blue dye exclusion assay. Tissue culture plates of size 60×15 mm were seeded with 100 live cells from vehicle treated and 5000 live cells from AS-10 treated cells. Cells were allowed to form colonies for 17 days in DMEM free from DMSO or AS-10 at 37° C. in a 5% CO2 chamber. After 17 days' colonies were stained with 0.5% alcoholic crystal violet. Percentage Plating efficiency (PE) was calculated by the formula: % PE=number of colonies*100/number of cells plated. Data plotted as % relative PE.

[2] = system: Panc-1 cells; test: Muse Live/dead Annexin V assay; assay type: cell-based; conditions: Panc-1, 48 h; AS-10 2.5 μM, gemcitabine 50 μM
Description: Muse Annexin V & Dead Cell kit was used to determine the apoptosis cells in AS-10 treated Panc-1 cells (Plano et al., 2016, J. Med. Chem. 1946-1959). The Muse Annexin V & Dead cell assay contains Annexin V to detect phosphatidylserine (PS) on the outer surface of cells. The kit also contains a dead cell marker, 7-amino-actinomycin D (7-AAD). […] In brief, Panc-1 (1.5×10^5) cells were treated with a given dose of AS-10 or DMSO for appropriate time (0, 6, 12, 24, 36, or 48 h). Both floating cells as well as adherent cells were collected and subjected for Annexin V staining using Muse Annexin V & Dead Cell kit with Muse cell analyzer (EMD Millipore, Billerica, Mass., USA). The obtained data were analyzed using Muse 1.4 software.

[3] = system: prostate cancer cells (LnCAP, PC-3 and DU-145); test: Apoptosis in prostate cancer cells; assay type: cell-based
[4] = system: NF-κB; test: Electrophoretic mobility shift assay (EMSA); assay type: cell-based; conditions: Panc-1, 6 h pretreatment, TNF-α 30 min
Description: To determine NF-κB activation, Panc-1 (1×10^6) cells were treated with different doses of AS-10 for 6 h. Thirty minutes before termination cells were stimulated with 100 ng/mL TNF-α (which is about 3.9 nM in media after addition). At the end of thirty minutes, cells were immediately stored on ice. Nuclear and cytosolic extracts were prepared as described previously (Pandey et al., 2007, J. Biol. Chem. 282: 17340-17350). Nuclear lysates were subjected to EMSA following the protocol (Pandey et al., 2007, J. Biol. Chem. 282: 17340-17350). The dried gels were exposed to X-ray films at −80° C. for exposure.

[5] = system: LNCaP cells; test: MTT cell viability test, LNCaP; assay type: cell-based; conditions: Homo sapiens, time and concentration dependent, read-out: EC50, growth inhibition of LNCaP cells
Description: (§1) MTT (3-(4,5-dimethylthiazol-2-yl)-2,5-diphenyltetrazolium) assay was performed to determine the effect of AS-10 on cancer cell viability (Plano et al., 2016, J. Med. Chem. 1946-1959; Alcolea et al., 2012, Eur. J. Med. Chem. 113:134-144; Kumar et al., 2014, Eur. J. Med. Chem. 81:267-276). Briefly, 3×10^3 cells were treated with different concentrations of AS-10 in triplicate in a 96-well plate for different time points. MTT solution (20 μL of 5.0 mg/mL solution) was added to each well, three hours prior to termination time point and incubated at 37° C. Resultant formazan crystals, at termination time point, were dissolved in 50 μL DMSO. The plate was subjected to a 96-well multiscanner (Dynex Technologies, MRX Revelation; Chantilly, Va., USA) for measuring the optical densities at 570 nm and 630 nm. IC50 values were determined by performing non-linear regression using Graphpad Prism software.

[6] = system: NCI-60 Human Tumor Cell Lines; test: NCI-60 Human Tumor Cell Lines Screen; assay type: cell-based
Description: AS-10 was submitted for National Cancer Institute's (NCI) Division of Cancer Treatment and Diagnosis (DCTD) for a single dose (10 μM for 72 h) screening on 60 different cancer cell lines (NCI-60 Human Tumor Cell Lines Screen, Developmental Therapeutic Program). The panel of cell lines included leukemia, non-small cell lung, colon, CNS, melanoma, ovarian, renal, prostate and breast cancer cell lines. […] AS-10 was screened against the same 60 cell lines at a dose of 0, 0.01, 0.1, 1, 10 and 100 μM for 72 h. […] Cell lines are grouped by the cancer type they represent. […] FIG. 16 is the tabular format of the effects of AS-10 on growth of all the tested cell lines.

[7] = system: different cancer cell types (breast, colorectal, lung, melanoma, ovarian, prostate); test: MTT assay in different cancer cell lines; assay type: cell-based; conditions: 24, 48 and 72 h
Description: as §1

[8] = system: Mouse embryonic fibroblast cells (MEFs); test: cells; assay type: cell-based
Description: as §1
To determine that AS-10 was selectively toxic to cancer cells, the effect of AS-10 in normal Mouse embryonic fibroblast cells (MEFs) was tested using MTT assay. MEFs were treated with AS-10 for 48 h and the data was compared with Panc-1 cells, treated for 48 h. […] At the dose which yields 50 percent growth inhibition in PC cells, AS-10 had no effect on MEFs growth.

[9] = system: androgen receptor (AR) signaling in LNCaP cells; test: AR / PSA and DNA damage response proteins in LNCaP cells; assay type: cell-based
[10] = system: HCT116 colon cancer xenograft; test: Colon cancer xenograft tumor inhibition; assay type: in vivo
Description: Athymic nude mice were used to evaluate the tumor inhibitory effect of AS-10 against a xenograft model of colon cancer. Approximately, 5×10^6 cells (HCT116) were inoculated into both left and right flanks of mice. After eight days, vehicle (DMSO) or AS-10 (45.2 mg/Kg) were injected via IP injection three times per week for 18 days.

What does the source list for `CC(=O)Oc1ccccc1C(=O)/N=C1\[Se]CCN1C(=O)c1ccccc1OC(C)=O` [AS-10, 2-((3-(2-acetoxybenzoyl)-1,3-selenazolidin-2-ylidene)carbamoyl)phenyl acetate]?
colonies formed compared to vehicle treated cells [1]: effectively decreased the amount of colonies formed; total apoptotic cells [2]: ~25%; Annexin V staining, caspase 3/7 activity, and PARP cleavage ([3]; LNCaP): increased; apoptosis induction in prostate cancer cells ([3]; LnCAP, PC-3 and DU-145): effective at inducing apoptosis in all prostate cancer cells tested; NF-κB DNA binding (EMSA band) [4]: NF-κB band faded away in a dose dependent manner; EC50 [5]: 1.7 to 2.5 µM; selectivity among NCI-60 cell types ([6]; 0.01-100 μM, 72 h): most cytotoxic towards CNS, melanoma and renal cancer cell lines; cell growth of NCI-60 cell lines ([6]; single dose 10 μM for 72 h): inhibited cell growth of all 60 cell lines; growth of different cancer cell types [7]: effectively inhibited growth; effect on MEFs growth [8]: no effect; IC50 ([8]; Mus musculus, Fibroblast, read-out: IC50, normal (Mouse Embryonic Fibroblasts) cells): > 50 µM; prostate specific antigen (PSA) in cell culture media of LnCAP cells [9]: inhibited; androgen receptor (AR) level ([9]; LNCaP): down regulated; expression of p21 and p-H2A.X ([9]; LNCaP): increased the expression; protein level of AR and PSA (Western blot) ([9]; LNCaP, concentration-dependent): decreased protein level; systemic toxicity from body weights of mice ([10]; 45.2 mg/Kg IP three times per week for 18 days): no apparent no systemic toxicity; tumor growth inhibition compared to vehicle treated mice ([10]; 45.2 mg/kg IP three times per week for 18 days, athymic nude mice): ~70%
